Measurements taken from patent US11235018B2, “Composition for preventing or treating cancer” (OKCHUNDANG CO., LTD., priority 2018, dated 2022).
Marks after values point to notes of the source that are not given here.

Columns and labels:
[1] = system: NCI-H520 tumor cell xenograft; assay: Histopathological change of tumor mass (tumor cell volume, apoptotic cells); type: in vivo, mice; details: single: gefitinib 120 mg/kg or SKOG 400 mg/kg, oral, 35 days
Caspase-3 = assay: Intratumoral caspase-3 immune response cells; type: in vivo, mice; details: single: gefitinib 120 mg/kg or SKOG 400 mg/kg, oral, 35 days
IFN-γ = assay: Serum IFN-γ level in NCI-H520 xenograft mice; type: in vivo; details: single: gefitinib 120 mg/kg or SKOG 400 mg/kg, oral, 35 days
TNF-α [2] = assay: Intratumoral TNF-α immune response cells; type: in vivo, mice; details: single: gefitinib 120 mg/kg or SKOG 400 mg/kg, oral, 35 days
splenic NK cell = assay: Splenic NK cell activity in NCI-H520 xenograft mice; type: in vivo; details: single: gefitinib 120 mg/kg or SKOG 400 mg/kg, oral, 35 days
IL-6 = assay: Serum IL-6 level in NCI-H520 xenograft mice; type: in vivo; details: single: gefitinib 120 mg/kg or SKOG 400 mg/kg, oral, 35 days
[3] = Spleen weight in NCI-H520 xenograft mice; type: in vivo; details: single: gefitinib 120 mg/kg or SKOG 400 mg/kg, oral, 35 days
iNOS = assay: Intratumoral iNOS immune response cells; type: in vivo, mice; details: single: gefitinib 120 mg/kg or SKOG 400 mg/kg, oral, 35 days
peritoneal NK cell = assay: Peritoneal NK cell activity in NCI-H520 xenograft mice; type: in vivo; details: single: gefitinib 120 mg/kg or SKOG 400 mg/kg, oral, 35 days
[4] = Histopathological change of spleen; type: in vivo, mice; details: single: gefitinib 120 mg/kg or SKOG 400 mg/kg, oral, 35 days
[5] = system: NCI-H520 tumor cell xenograft; assay: Tumor weight in NCI-H520 xenograft mice; type: in vivo; details: single: gefitinib 120 mg/kg or SKOG 400 mg/kg, oral, 35 days
[6] = Periovarian fat weight in NCI-H520 xenograft mice; type: in vivo; details: single: gefitinib 120 mg/kg or SKOG 400 mg/kg, oral, 35 days
PARP = assay: Intratumoral PARP immune response cells; type: in vivo, mice; details: single: gefitinib 120 mg/kg or SKOG 400 mg/kg, oral, 35 days
IL-10 = assay: Splenic IL-10 level in NCI-H520 xenograft mice; type: in vivo; details: single: gefitinib 120 mg/kg or SKOG 400 mg/kg, oral, 35 days
[7] = Histopathological change of periovarian fat; type: in vivo, mice; details: single: gefitinib 120 mg/kg or SKOG 400 mg/kg, oral, 35 days
[8] = system: NCI-H520 tumor cell xenograft; assay: Tumor volume in NCI-H520 xenograft mice; type: in vivo; details: single: gefitinib 120 mg/kg or SKOG 400 mg/kg
[9] = Histopathological change of submandibular lymph nodes; type: in vivo, mice; details: single: gefitinib 120 mg/kg or SKOG 400 mg/kg, oral, 35 days
TNF-α [10] = assay: Splenic TNF-α level in NCI-H520 xenograft mice; type: in vivo; details: single: gefitinib 120 mg/kg or SKOG 400 mg/kg, oral, 35 days
COX-2 = assay: Intratumoral COX-2 immune response cells; type: in vivo, mice; details: single: gefitinib 120 mg/kg or SKOG 400 mg/kg, oral, 35 days
[11] = Submandibular lymph node weight in NCI-H520 xenograft mice; type: in vivo; details: single: gefitinib 120 mg/kg or SKOG 400 mg/kg, oral, 35 days
IL-1β = assay: Splenic IL-1β level in NCI-H520 xenograft mice; type: in vivo; details: single: gefitinib 120 mg/kg or SKOG 400 mg/kg, oral, 35 days
[12] = Body weight and weight gain in NCI-H520 xenograft mice; type: in vivo; details: single: gefitinib 120 mg/kg or SKOG 400 mg/kg

## COc1cc2ncnc(Nc3ccc(F)c(Cl)c3)c2cc1OCCCN1CCOCC1 [Gefitinib, N-(3-chloro-4-fluorophenyl)-7-methoxy-6-(3-morpholinopropoxy)quinazolin-4-amine]
[1]
  Percentage of apoptotic cells: 49.88%
  Tumor cell volume: 56.28 %/mm^2
  change of proportion of apoptotic cells in the tumor tissue compared with tumor xenograft control group: 560.23%
  change of proportion of tumor cells in the tumor tissue compared with tumor xenograft control group: −29.01%
Caspase-3
  Percentage of immune-responsive cells, Caspase-3: 40.60 %/tumor cells
  change of proportion of caspase-3 immune response cells in the tumor tissue compared with tumor xenograft control group: 268.77%
IFN-γ
  change of serum IFN-γ level compared with tumor xenograft control group: −2.85%
TNF-α [2]
  Percentage of immune-responsive cells, TNF-α: 7.28 %/tumor cells
  change of proportion of TNF-α immune response cells in the tumor tissue compared with tumor xenograft control group: −6.19%
Splenic NK cell
  change of splenic NK cell activity compared with tumor xenograft control group: −6.32%
IL-6
  change of serum IL-6 level compared with tumor xenograft control group: 6.25%
[3]
  Spleen (absolute weight): 0.051 ± 0.007^a
  Spleen (relative weight): 0.251 ± 0.036^a
  change of absolute spleen weight compared with tumor xenograft control group: −7.13%
  change of relative spleen weight compared with tumor xenograft control group: 4.11%
iNOS
  Percentage of immune-responsive cells, iNOS: 12.07 %/tumor cells
  change of proportion of iNOS immune response cells in the tumor tissue compared with tumor xenograft control group: −0.50%
Peritoneal NK cell
  change of peritoneal NK cell activity compared with tumor xenograft control group: −7.43%
[4]
  Number of splenic white pulps: 4.63 ± 1.85^a /mm^2
  Splenic white pulp diameter: 187.63 ± 73.54^e μm/white pulp
  change of number of splenic white pulps compared with tumor xenograft control group: −5.13%
  change of splenic overall thickness compared with tumor xenograft control group: 0.42%
  change of splenic white pulp diameter compared with tumor xenograft control group: −0.60%
[5]
  Tumor weight (absolute weight): 1.664 ± 0.292^f
  Tumor weight (relative weight): 8.274 ± 1.443^g
  change in absolute tumor weight compared with tumor xenograft control group: −40.73%
  change in relative tumor weight compared with tumor xenograft control group: −33.56%
[6]
  Periovarian fat (absolute weight): 0.007 ± 0.002^d
  Periovarian fat (relative weight): 0.036 ± 0.011^e
  change of absolute periovarian fat weight compared with tumor xenograft control group: −13.43%
  change of relative periovarian fat weight compared with tumor xenograft control group: −2.79%
PARP
  Percentage of immune-responsive cells, PARP: 46.98 %/tumor cells
  change of proportion of PARP immune response cells in the tumor tissue compared with tumor xenograft control group: 223.59%
IL-10
  Splenic IL-10 (Interleukin-10) level: 25.58 ± 11.94^a
  change of splenic IL-10 level compared with tumor xenograft control group: −3.53%
[7]
  White fat cell average diameter: 12.36 ± 1.95^d μm
  change of periovarian accumulation fat thickness compared with tumor xenograft control group: −8.19%
  change of white fat cell average diameter compared with tumor xenograft control group: −6.37%
[8]; baseline
  Tumor volume, start of administration [A]: 462.10 ± 105.87 mm^3
[8]; oral, 35 days
  Tumor volume change [B − A]: 2396.41 ± 329.84 ^a mm^3
  Tumor volume, at the time of sacrifice [B]: 2858.51 ± 377.01^a mm^3
[8]; oral, five weeks
  change in tumor volume during drug administration period compared with tumor xenograft control group: −60.18%
[9]
  Number of intracortical follicles: 5.38 ± 2.39^d /mm^2
  change of number of intracortical follicles in the submandibular lymph nodes compared with tumor xenograft control group: −6.52%
  change of submandibular lymph node cortex thickness compared with tumor xenograft control group: −3.84%
  change of submandibular lymph node overall thickness compared with tumor xenograft control group: −2.55%
  cortex thickness: 215.75 ± 43.93^d μm/lymph node
  submandibular lymph node overall thickness: 501.50 ± 106.64^a μm/central region
TNF-α [10]
  Splenic TNF-α (Tumor necrosis factor-α) level: 26.23 ± 10.81^a
  change of splenic TNF-α level compared with tumor xenograft control group: −0.24%
COX-2
  Percentage of immune-responsive cells, COX-2: 38.89 %/tumor cells
  change of proportion of COX-2 immune response cells in the tumor tissue compared with tumor xenograft control group: −35.00%
[11]
  Submandibular lymph nodes (absolute weight): 0.004 ± 0.001^d
  change in absolute submandibular lymph node weight compared with tumor xenograft control group: −8.82%
  change in relative submandibular lymph node weight compared with tumor xenograft control group: 1.85%
  submandibular lymph nodes (relative weight): 0.019 ± 0.006^e
IL-1β
  Splenic IL-1β (Interleukin-1β) level: 8.36 ± 1.96^a
  change of splenic IL-1β level compared with tumor xenograft control group: −3.18%
[12]; baseline
  Body weight, administration initiation: 19.29 ± 1.29 g
[12]; oral, 35 days
  Actual body weight (excluding tumor weight): 18.46 ± 0.77^ad g
  Body weight, sacrifice: 20.13 ± 0.76^fg
  Weight gain: −0.83 ± 0.98^ac g
  change of actual body weight excluding tumor weight compared with tumor xenograft group: −6.61%
  change of weight gain during administration period compared with tumor xenograft control group: −341.95%
